# Measurements: US8937038B2, “Composition containing peptide ligand that bonds with CXCR2 for treating infective and inflammatory diseases” (priority 2010, dated 2015)
# Assays:
# mouse splenocytes = test: Cytokine release from LPS-stimulated mouse splenocytes (ELISA); assay type: cell-based
# Description: Mouse splenocytes were positioned on an RPMI 1640 medium including 5% FBS in a 96-well plate, and maintained at 37° C. in a 5% CO2 incubator. Thereafter, the splenocytes were stationarily incubated with LPS (100 ng/ml) for 24 hours in the presence or absence of Ac-PGP. After 30 minutes, LPS was added to the cells and collected a cell-free supernatant, and then the supernatant was centrifuged, and TNF-α, IL-6 and IFN-γ were measured using ELISA (BD Biosciences Pharmingen). In regards to the effect of IFN-γ on production of pro-inflammatory cytokines induced by LPS, 5×10^5 cells/ml of the mouse splenocytes were stimulated with 100 ng/ml of LPS in the presence or absence IFN-γ (R&D) (at various concentrations of 1, 10, 100 and 1,000 IU/ml). Amounts of TNF-α and IL-6 were measured 20 hours after stationary incubation using ELISA (BD Biosciences Pharmingen).
# (§1) An effect of the Ac-PGP on a pro-inflammatory cytokine in a peritoneal fluid by CLP was determined from 4 to 72 hours after the CLP. The CLP induced a remarkable increase in levels of pro-inflammatory cytokines (TNF-α, IL-1β and IL-6) within 24 hours (FIGS. 14 to 16). Injection of the Ac-PGP in a sepsis model by the CLP induced a remarkable change in levels of the cytokines. […] To evaluate an effect of the Ac-PGP on production of the pro-inflammatory cytokines by the LPS, in vitro production of TNF-α and IL-6 by the mouse splenocytes was evaluated. Direct release of the TNF-α and IL-6 from the mouse splenocytes by the LPS was suppressed by in vitro treatment with the Ac-PGP (FIGS. 17 and 18).
# Since it was confirmed that the administration of the Ac-PGP improved in vivo production of IFN-γ, a direct effect of the Ac-PGP on production of IFN-γ by splenocytes was examined. […] Also, an effect of IFN-γ on production of the pro-inflammatory cytokines was also examined.
# CLP mice = test: Cytokines in peritoneal fluid after CLP (ELISA); assay type: in vivo, mouse
# Description: To measure a production amount of cytokines induced by CLP in a peritoneal lavage fluid, mice were provided with Ac-PGP for 2 hours, 14 hours, 26 hours, and 38 hours after CLP. A peritoneal lavage fluid was collected within various time zones between 4 and 72 hours after the CLP, and cytokines present in the peritoneal fluid was measured using ELISA (BD Biosciences Pharmingen).
# as §1
# An effect of the Ac-PGP on levels of Th1 cytokines by CLP in a peritoneal fluid was also determined from 4 to 72 hours after the CLP.
# mouse neutrophils = test: H2O2 production in mouse neutrophils; assay type: cell-based; settings: various concentrations, 10 minutes, cytochalasin B 5 μM; FIG. 12
# Description: Mouse neutrophils were separated from peripheral blood using a Histopaque-1077 solution (Sigma) (Bae Y S et al. 2001 Blood. 97: 2854-2862). The neutrophils separated from normal mice were stimulated with various concentrations of Ac-PGP for 10 minutes in the presence of cytochalasin B (5 μM). To identify the role of mCXCR2, the neutrophils were pre-incubated in various concentrations of SB225002 or a vehicle (DMSO) for 30 minutes in a stationary environment, and Ac-PGP (20 μM) was added, and incubated for 10 minutes. H2O2 in a supernatant was measured using a H2O2 measurement kit (Molecular probe).
# A death rate by CLP is correlated with the number of bacterial colonies in a peritoneal fluid. Therefore, an effect of the Ac-PGP on removal of bacteria in a peritoneal fluid was examined. […] In vitro disinfection activity of the Ac-PGP was examined using neutrophils derived from a mouse. The mouse neutrophils were kept for an hour to phagocytize E. coli, and then stimulated with various concentrations of Ac-PGP (0.1 to 100 nM) for 20 minutes. […] A reactive oxygen species such as hydrogen peroxide was known as an important molecule participating in the disinfection activity. Therefore, an effect of Ac-PGP on production of hydrogen peroxide in the mouse neutrophils was examined. […]
# [1] = tested on: mice into which LPS was intraperitoneally injected; test: Survival in LPS-induced sepsis model; assay type: in vivo, mouse; settings: 60 mg/kg LPS intraperitoneally; FIG. 4
# Description: Male WT ICR mice were used to evaluate a therapeutic effect of Ac-PGP. IFN-γ-deficient mice (kindly provided by Y. K. Kim at the Pohang University of Science and Technology, Pohang, Republic of Korea) were used for mechanism study. All Examples in which animals were used were performed according to the instructions with permission of the Institutional Review Board (IRB) for the care and management of laboratory animals at Dong-A University. In the case of the CLP, mice were anesthetized with pentothal sodium (50 mg/kg, intraperitoneally injected), and abdomen of each mouse was cut along a central cutting line to expose an appendix. Then, an ileocecal valve of the appendix was tied up, both surfaces of the ileocecal valve were punctured twice with a 22-gauge needle (or punctured once to measure a production amount of cytokines), and the abdomen was sutured. Sham CLP mice were treated in the same manner as described above, except that CLP of the appendix was not performed. A survival rate of the mice was monitored every day for 10 days. In the case of the LPS or E. coli model, E. coli and LPS were intraperitoneally injected at concentrations of 1×10^9 cells/mouse and 60 mg/kg, respectively. A survival rate of the mice was monitored once a day for 10 days.
# In another mouse model of sepsis, a therapeutic effect of Ac-PGP was also evaluated.
substance,measurement,setting,value
acetylated-Pro-Gly-Pro [Ac-PGP],release of TNF-α by LPS,"mouse splenocytes; LPS 100 ng/ml, 24 hours, FIG. 17",suppressed
same,release of IL-6 by LPS,"mouse splenocytes; LPS 100 ng/ml, 24 hours, FIG. 18",suppressed
same,production of IFN-γ by LPS,"mouse splenocytes; LPS-stimulated splenocytes, FIG. 24",increased production of IFN-γ
same,level of TNF-α in peritoneal fluid,"CLP mice; 4 to 72 hours after CLP, FIG. 14",induced a decrease in levels
same,level of IL-1β in peritoneal fluid,"CLP mice; 4 to 72 hours after CLP, FIG. 15",induced a decrease in levels
same,level of IL-6 in peritoneal fluid,"CLP mice; 4 to 72 hours after CLP, FIG. 16",induced a decrease in levels
same,level of IFN-γ in peritoneal fluid,"CLP mice; 4 to 72 hours after CLP, FIG. 19",remarkably increased
same,level of IL-12p70 in peritoneal fluid,"CLP mice; 4 to 72 hours after CLP, FIG. 20",remarkably increased
same,level of IL-2 in peritoneal fluid,"CLP mice; 4 to 72 hours after CLP, FIG. 21",remarkably increased
same,level of IFN-γ in the peritoneal fluid,CLP mice; 24 hours after the CLP,improved levels
same,level of IL-12 in the peritoneal fluid,CLP mice; 24 hours after the CLP,improved levels
same,production of hydrogen peroxide,mouse neutrophils,strongly increased production of hydrogen peroxide in a concentration-dependent manner
same,mortality,[1],decreased mortality
